Results taken from patent US11834458B2, “Anti-cancer nuclear hormone receptor-targeting compounds” (Nuvation Bio Inc., priority 2021, dated 2023).
Where two headings read alike, the source gives them in different places.

Tests used:
AR = AR (Homo sapiens (Human), UniProt P10275, T878A); assay: AR binding assay
Protocol: AR binding assay: To assess AR binding, test compound (top dose 10 μM, 4 fold serial dilution, 8 point dose response) and control (progesterone) were transferred to the assay plate. Cytosol from LnCaP cells was added to the plate, followed by addition of radiolabeled ^3H-R1881 at a final concentration of 1 nM. The plate was sealed, and the reaction was incubated at 300 rpm at 4° C. for 24 hrs. Radioligand absorption buffer (10 mM Tris-HCl, pH 7.4; 1.5 mM EDTA; 1 mM DTT; 0.25% charcoal; 0.0025% dextran) was then added to the plate, mixed, and incubated at 4° C. for 15 minutes. The plate was then centrifuged at 3000 rpm for 30 minutes at 4° C. The supernatant was transferred to the scint-tube and Tri-carb was used for scintillation counting. The data was analyzed using GraphPadPrism v5.0 and binding IC50 was determined as the concentration where 50% inhibition of radioligand binding was observed.

LNCap cells = assay: Cell viability assay, LNCap; format: cell-based; details: Homo sapiens, 144 h
Protocol: (§1) Cell viability assay: LNCap, 22Rv1, MCF7, MDAMB361, T47D, and IEC6 cells are seeded at a density of 500-2000 cells/well in 96 well plates, and a ‘T0’ (timepoint 0) was included along with the assay plate. The plates are then incubated at 37° C., 5% CO2 in a cell culture incubator overnight. On the next day, the ‘T0’ plate was assayed using CellTiterGlo (Promega, Inc) according to the manufacturer's instructions. The appropriate compounds are diluted in DMSO and added to the assay plate (final DMSO concentration of 0.1-0.2%) on the next day. The assay plates are incubated for 6 days at 37° C., 5% CO2. After the incubation period, the plates are assayed using CellTiterGlo (Promega, Inc) according to the manufacturer's instructions and luminescence was read on the EnVision plate reader. Inhibition of the tested compounds was determined by the following formula: Inhibition rate (%)=(1−(RLU compound−RLU day0)/(RLU control−RLU day0))*100%. GraphPadPrism was used to analyze the data and determine GI50/IC50 values.

[1] = molecular target: full-length androgen receptor (Homo sapiens (Human), UniProt P10275); assay: AR antagonism assay; format: cell-based
Protocol: AR antagonism assay: To evaluate AR antagonist activity, test compound was added to the assay plate (top dose 10 μM, 3 fold serial dilution, 10 point dose response). HEK293 cells stably expressing the full-length androgen receptor were seeded at a density of 20,000 cells/well in the assay plate. The assay plate was then incubated at room temperature for 10 minutes and at 37° C., 5% CO2 for 20 minutes. Testosterone was added to the assay plate at 1 nM final concentration and the assay plate incubated at 37° C., 5% CO2 for 20 h. After the incubation period, Steady-glo was added to the assay plate and mixed at room temperature for 20 minutes on an orbital shaker, before reading out on the EnVision plate reader.

IEC6 cells = assay: Cell viability assay, IEC6; format: cell-based; details: Rattus norvegicus
Protocol: as §1

22Rv1 cells = assay: Cell viability assay, 22Rv1; format: cell-based; details: Homo sapiens
Protocol: as §1

MDAMB361 cells = assay: Cell viability assay, MDAMB361; format: cell-based; details: Homo sapiens, MDA-MB-361, 144 h, read-out: MDA-MB-361 (GI50, nM)
Protocol: as §1

T47D cells = assay: Cell viability assay, T47D; format: cell-based; details: Homo sapiens, T47D, 144 h, read-out: T47D (GI50, nM)
Protocol: as §1

MCF7 cells = assay: Cell viability assay, MCF7; format: cell-based; details: Homo sapiens, MCF7, 144 h, read-out: MCF7 (GI50, nM)
Protocol: as §1

[2] = LNCaP, read-out: LNCap (GI50, nM)
[3] = HEK293 cells stably expressing full-length androgen receptor, testosterone 1 nM, 20 h, read-out: AR antagonism
[4] = IEC-6, 144 h, read-out: IEC-6 (IC50, nM)
[5] = 22Rv1, 144 h, read-out: 22RV1 (GI50, nM)
[6] = cytosol from LnCaP cells, 3H-R1881 1 nM, 4° C. 24 hrs, read-out: AR binding
[7] = LNCap cells, 6 days, CellTiterGlo, read-out: LNCap (GI50)
[8] = 144 h, IEC-6 cells, 6 days, CellTiterGlo, read-out: IEC-6 (IC50)
[9] = 144 h, 22RV1 cells, 6 days, CellTiterGlo, read-out: 22RV1 (GI50)

Sequence of full-length androgen receptor (P10275 whole entry): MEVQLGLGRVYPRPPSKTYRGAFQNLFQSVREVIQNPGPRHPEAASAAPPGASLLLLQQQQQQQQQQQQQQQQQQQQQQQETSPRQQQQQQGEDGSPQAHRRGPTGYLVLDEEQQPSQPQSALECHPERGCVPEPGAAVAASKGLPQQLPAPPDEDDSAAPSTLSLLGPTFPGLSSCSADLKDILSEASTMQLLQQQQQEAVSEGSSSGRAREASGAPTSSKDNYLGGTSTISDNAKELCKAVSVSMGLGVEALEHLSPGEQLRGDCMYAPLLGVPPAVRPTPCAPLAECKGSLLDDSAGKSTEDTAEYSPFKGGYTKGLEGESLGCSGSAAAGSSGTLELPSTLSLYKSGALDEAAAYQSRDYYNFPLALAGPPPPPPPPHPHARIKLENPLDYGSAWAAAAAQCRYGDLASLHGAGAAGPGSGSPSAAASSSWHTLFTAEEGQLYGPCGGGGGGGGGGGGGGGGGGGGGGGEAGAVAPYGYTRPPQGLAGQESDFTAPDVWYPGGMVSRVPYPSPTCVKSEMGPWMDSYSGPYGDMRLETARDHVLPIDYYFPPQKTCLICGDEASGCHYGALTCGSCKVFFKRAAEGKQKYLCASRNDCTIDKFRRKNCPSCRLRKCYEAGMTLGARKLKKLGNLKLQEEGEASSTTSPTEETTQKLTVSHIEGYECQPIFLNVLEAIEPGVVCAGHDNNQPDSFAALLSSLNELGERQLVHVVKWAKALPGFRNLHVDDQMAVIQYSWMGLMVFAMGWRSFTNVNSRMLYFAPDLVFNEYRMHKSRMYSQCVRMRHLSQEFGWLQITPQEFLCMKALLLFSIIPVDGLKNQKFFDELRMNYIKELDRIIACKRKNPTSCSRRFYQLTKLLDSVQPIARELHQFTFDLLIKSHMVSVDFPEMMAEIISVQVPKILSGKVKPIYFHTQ
Sequence of AR (P10275 whole entry T878A): as the sequence (P10275 whole entry) above, with T878A counted along it

Structure (SMILES) | IC50 (AR) | GI50 (LNCap cells; [2]) | IC50 [1, 3] | IC50 (IEC6 cells; [4]) | GI50 (22Rv1 cells; [5]) | IC50 (AR; [6]) | GI50 (LNCap cells; [7]) | IC50 [1] | IC50 (IEC6 cells; [8]) | GI50 (22Rv1 cells; [9]) | GI50 (MDAMB361 cells) | GI50 (T47D cells) | GI50 (MCF7 cells)
CC[C@@]1(O)C(=O)OCc2c1cc1n(c2=O)Cc2cc3c(CN(C)C)c(OC(=O)N4CCN(CCCCCCO[C@@H]5CC[C@@H]6[C@H]7CC[C@@H]8CC(=O)CC[C@@]8(C)[C@@H]7CC[C@]65C)CC4)ccc3nc2-1 [Compound 8, (S)-10-((Dimethylamino)methyl)-4-ethyl-4-hydroxy-3,14-dioxo-3,4,12,14-tetrahydro-1H-pyrano[3′,4′:6,7]indolizino[1,2-b]quinolin-9-yl 4-(6-(((5R,8S,9R,10R,13R,14R,17R)-10,13-dimethyl-3-oxohexadecahydro-1H-cyclopenta[a]phenanthren-17-yl)oxy)hexyl)piperazine-1-carboxylate] | 10 to 500 nM | 10 to 500 nM | > 1000 nM | > 1000 nM | 10 to 500 nM | – | – | – | – | – | – | – | –
CC[C@@]1(O)C(=O)OCc2c1cc1n(c2=O)Cc2cc3c(CN4CCN(CC5CCN(c6ccc(C(=O)N[C@H]7CC[C@H](Oc8ccc(C#N)c(Cl)c8)CC7)nn6)CC5)CC4)c(O)ccc3nc2-1 [Compound 11, N-((1r,4r)-4-(3-Chloro-4-cyanophenoxy)cyclohexyl)-6-(4-((4-(((S)-4-ethyl-4,9-dihydroxy-3,14-dioxo-3,4,12,14-tetrahydro-1H-pyrano[3′,4′:6,7]indolizino[1,2-b]quinolin-10-yl)methyl)piperazin-1-yl)methyl)piperidin-1-yl)pyridazine-3-carboxamide] | – | – | – | – | – | 10 to 500 nM | 10 to 500 nM | 10 to 500 nM | 501 to 1000 nM | 10 to 500 nM | – | – | –
CC[C@@]1(O)C(=O)OCc2c1cc1n(c2=O)Cc2cc3c(CN4CCN(C(=O)CCCCCOc5ccc(C(=O)N[C@H]6CC[C@H](Oc7ccc(C#N)c(Cl)c7)CC6)cc5)CC4)c(O)ccc3nc2-1 [Compound 12, N-((1r,4r)-4-(3-Chloro-4-cyanophenoxy)cyclohexyl)-4-((6-(4-(((S)-4-ethyl-4,9-dihydroxy-3,14-dioxo-3,4,12,14-tetrahydro-1H-pyrano[3′,4′:6,7]indolizino[1,2-b]quinolin-10-yl)methyl)piperazin-1-yl)-6-oxohexyl)oxy)benzamide] | – | – | – | – | – | > 1000 nM | 10 to 500 nM | 10 to 500 nM | > 1000 nM | 501 to 1000 nM | – | – | –
CC[C@@]1(O)C(=O)OCc2c1cc1n(c2=O)Cc2cc3c(CN4CCN(C(=O)C5CCN(c6ccc(C(=O)N[C@H]7CC[C@H](Oc8ccc(C#N)c(Cl)c8)CC7)nn6)CC5)CC4)c(O)ccc3nc2-1 [Compound 14, N-((1r,4r)-4-(3-Chloro-4-cyanophenoxy)cyclohexyl)-6-(4-(4-(((S)-4-ethyl-4,9-dihydroxy-3,14-dioxo-3,4,12,14-tetrahydro-1H-pyrano[3′,4′:6,7]indolizino[1,2-b]quinolin-10-yl)methyl)piperazine-1-carbonyl)piperidin-1-yl)pyridazine-3-carboxamide] | – | – | – | – | – | 10 to 500 nM | 10 to 500 nM | 10 to 500 nM | > 1000 nM | 10 to 500 nM | – | – | –
CC[C@@]1(O)C(=O)OCc2c1cc1n(c2=O)Cc2cc3c(CN(C)C)c(OC(=O)N4[C@H](C)CN(CCCCCCN(C)c5ccc([C@H]6C[C@@]7(C)[C@@H](CC[C@]7(OC(C)=O)C(C)=O)[C@@H]7CCC8=CC(=O)CCC8=C76)cc5)C[C@H]4C)ccc3nc2-1 [Compound 16, (S)-10-((Dimethylamino)methyl)-4-ethyl-4-hydroxy-3,14-dioxo-3,4,12,14-tetrahydro-1H-pyrano[3′,4′:6,7]indolizino[1,2-b]quinolin-9-yl (2R,6R)-4-(6-((4-((8S,11R,13S,14S,17R)-17-acetoxy-17-acetyl-13-methyl-3-oxo-2,3,6,7,8,11,12,13,14,15,16,17-dodecahydro-1H-cyclopenta[a]phenanthren-11-yl)phenyl)(methyl)amino)hexyl)-2,6-dimethylpiperazine-1-carboxylate] | – | 501 to 1000 nM | – | > 1000 nM | – | – | – | – | – | – | > 1000 nM | 10 to 500 nM | 10 to 500 nM
CC[C@@]1(O)C(=O)OCc2c1cc1n(c2=O)Cc2cc3c(COC(C)(C)C)c(OC(=O)N4CCN(CCCCCCN(C)c5ccc([C@H]6C[C@@]7(C)[C@@H](CC[C@]7(OC(C)=O)C(C)=O)[C@@H]7CCC8=CC(=O)CCC8=C76)cc5)CC4)ccc3nc2-1 [Compound 17, (S)-10-(tert-Butoxymethyl)-4-ethyl-4-hydroxy-3,14-dioxo-3,4,12,14-tetrahydro-1H-pyrano[3′,4′:6,7]indolizino[1,2-b]quinolin-9-yl 4-(6-((4-((8S,11R,13S,14S,17R)-17-acetoxy-17-acetyl-13-methyl-3-oxo-2,3,6,7,8,11,12,13,14,15,16,17-dodecahydro-1H-cyclopenta[a]phenanthren-11-yl)phenyl)(methyl)amino)hexyl)piperazine-1-carboxylate] | – | > 1000 nM | – | > 1000 nM | – | – | – | – | – | – | > 1000 nM | > 1000 nM | > 1000 nM
CC[C@@]1(O)C(=O)OCc2c1cc1n(c2=O)Cc2cc3c(CN4CCC(N(C)C(=O)CO[C@H]5CC[C@H]6[C@@H]7CC[C@H]8CC(=O)CC[C@]8(C)[C@H]7CC[C@]56C)CC4)c(O)ccc3nc2-1 [Compound 18, 2-(((5S,8R,9S,10S,13S,14S,17S)-10,13-Dimethyl-3-oxohexadecahydro-1H-cyclopenta[a]phenanthren-17-yl)oxy)-N-(1-(((S)-4-ethyl-4,9-dihydroxy-3,14-dioxo-3,4,12,14-tetrahydro-1H-pyrano[3′,4′:6,7]indolizino[1,2-b]quinolin-10-yl)methyl)piperidin-4-yl)-N-methylacetamide] | – | – | – | – | – | 10 to 500 nM | 10 to 500 nM | > 1000 nM | > 1000 nM | 10 to 500 nM | – | – | –
CC[C@@]1(O)C(=O)OCc2c1cc1n(c2=O)Cc2cc3c(CN(C)C)c(OC(=O)N4CCC(N(C)C(=O)CO[C@H]5CC[C@H]6[C@@H]7CC[C@H]8CC(=O)CC[C@]8(C)[C@H]7CC[C@]56C)CC4)ccc3nc2-1 [Compound 20, (S)-10-((Dimethylamino)methyl)-4-ethyl-4-hydroxy-3,14-dioxo-3,4,12,14-tetrahydro-1H-pyrano[3′,4′:6,7]indolizino[1,2-b]quinolin-9-yl 4-(2-(((5S,8R,9S,10S,13S,14S,17S)-10,13-dimethyl-3-oxohexadecahydro-1H-cyclopenta[a]phenanthren-17-yl)oxy)-N-methylacetamido)piperidine-1-carboxylate] | 10 to 500 nM | 10 to 500 nM | > 1000 nM | > 1000 nM | 10 to 500 nM | – | – | – | – | – | – | – | –
CC[C@@]1(O)C(=O)OCc2c1cc1n(c2=O)Cc2cc3c(CN(C)C)c(OC(=O)N(C)C4CCN(C(=O)CO[C@H]5CC[C@H]6[C@@H]7CC[C@H]8CC(=O)CC[C@]8(C)[C@H]7CC[C@]56C)CC4)ccc3nc2-1 [Compound 21, (S)-10-((Dimethylamino)methyl)-4-ethyl-4-hydroxy-3,14-dioxo-3,4,12,14-tetrahydro-1H-pyrano[3′,4′:6,7]indolizino[1,2-b]quinolin-9-yl (1-(2-(((5S,8R,9S,10S,13S,14S,17S)-10,13-dimethyl-3-oxohexadecahydro-1H-cyclopenta[a]phenanthren-17-yl)oxy)acetyl)piperidin-4-yl)(methyl)carbamate] | 10 to 500 nM | 10 to 500 nM | > 1000 nM | > 1000 nM | 10 to 500 nM | – | – | – | – | – | – | – | –
